Test results from patent publication US11292807B2 (OCEANS LTD., priority 2015, dated 2022).
Where two headings read alike, the source gives them in different places.

Key:
[1] = tested on: MDA-MB; assay: cells; conditions: Homo sapiens, read-out: Average cell viability, MDA-MB; for viability at 50 µg/mL: 50 ug/mL; for viability at 100 µg/mL: 100 ug/mL
[2] = tested on: CCD1079SK (fibroblast, noncancerous but proliferating); assay: CIMA assay, cell viability, CCD1079SK; conditions: CCD
[3] = tested on: THP-1 (acute monocytic leukemia); assay: CIMA assay, cell viability, THP-1; conditions: for Fold change in viability AVG / In vitro activity against cancer cell lines, THP-1 AVG: THP-1
Procedure: Stock solutions of the extracts were prepared in dimethylsulfoxide (DMSO) at 10 mg/mL and stored in 200 μl aliquots at −20° C. until analysis. This preparation ensured that the DMSO delivered to cells in culture never exceeded 1%.
Prepared extracts were assessed following chronic exposure conditions in which cells were seeded at 2×10^3 cells/well (96 well-plate) and incubated with test compounds for 72 h. Each compound was evaluated over a range of concentrations (0, 10, 25, 50 or 100 μg/ml). Cell proliferation was initially assessed using a standard colorimetric indicator of metabolic activity (CIMA) assay. In this assay, tetrazole reduction was evaluated as a measure of metabolic function that evaluates mitochondrial activity to determine the extent of cell proliferation within a culture. This assay is based on the reduction of yellow tetrazolium salt to purple formazan by mitochondrial reductases enzyme in viable cells, resulting in a color changed that confers a change in absorbance.

[4] = in vitro; conditions: human, Average cell viability
[5] = tested on: A549 (lung carcinoma); assay: CIMA assay (colorimetric indicator of metabolic activity), cell viability, A549; conditions: for Fold change in viability AVG / In vitro activity against cancer cell lines, A549 AVG: A549
[6] = tested on: SKOV3 (ovarian adenocarcinoma); assay: CIMA assay, cell viability, SKOV3; conditions: for Fold change in viability AVG / In vitro activity against cancer cell lines, SKOV AVG: SKOV
[7] = tested on: PC3; assay: CIMA assay, cell viability, PC3; conditions: for Fold change in viability AVG / In vitro activity against cancer cell lines, PC3 AVG: PC3
[8] = tested on: U373 (glioblastoma-astrocytoma); assay: CIMA assay, cell viability, U373; conditions: for Fold change in viability AVG / In vitro activity against cancer cell lines, U373 AVG: U373
[9] = tested on: MDA-MB; conditions: MDA-MB
[10] = CIMA assay, cell viability, CCD1079SK; conditions: human, CCD1079SK fibroblasts (noncancerous, proliferating), Average cell viability, CCD
[11] = Homo sapiens, THP-1, read-out: Average cell viability, THP-1, 50 ug/mL
[12] = Homo sapiens, THP-1, read-out: Average cell viability, THP-1, 100 ug/mL
[13] = Homo sapiens, A549, read-out: Average cell viability, A549, 50 ug/mL
[14] = Homo sapiens, A549, read-out: Average cell viability, A549, 100 ug/mL
[15] = Homo sapiens, SK-OV-3, read-out: Average cell viability, SKOV, 50 ug/mL
[16] = Homo sapiens, SK-OV-3, read-out: Average cell viability, SKOV, 100 ug/mL
[17] = Homo sapiens, PC-3, read-out: Average cell viability, PC3, 50 ug/mL
[18] = Homo sapiens, PC-3, read-out: Average cell viability, PC3, 100 ug/mL
[19] = Homo sapiens, U373 MG, read-out: Average cell viability, U373, 50 ug/mL
[20] = Homo sapiens, U373 MG, read-out: Average cell viability, U373, 100 ug/mL

CCCCC/C=C\C/C=C\CCCCCCCC(=O)O [Compound 20, linoleic acid]
viability at 1 µg/mL ([1]; 1 ug/mL): 100%
viability at 10 µg/mL ([1]; 10 ug/mL): 95%
viability at 50 µg/mL [1]: 17%
viability at 100 µg/mL [1]: 15%
Fold change in viability AVG ([2]; 1 ug/mL): 1.02
Fold change in viability AVG ([2]; 10 ug/mL): 1.07
Fold change in viability AVG ([2]; 50 ug/mL): 0.15
Fold change in viability AVG ([2]; 100 ug/mL): 0.06
viability at 1 µg/mL ([3]; Homo sapiens, THP-1, read-out: Average cell viability, THP-1, 1 ug/mL): 91%
viability at 10 µg/mL ([3]; Homo sapiens, THP-1, read-out: Average cell viability, THP-1, 10 ug/mL): 91%
viability at 50 µg/mL [3, 11]: 21%
viability at 100 µg/mL [3, 12]: 17%
THP-1 AVG ([3]; THP-1, sample at 1 ug/mL): 1.04
THP-1 AVG ([3]; THP-1, sample at 10 ug/mL): 1.03
THP-1 AVG ([3]; THP-1, sample at 50 ug/mL): 0.24
THP-1 AVG ([3]; THP-1, sample at 100 ug/mL): 0.19
Fold change in viability AVG ([3]; 1 ug/mL): 1.04
Fold change in viability AVG ([3]; 10 ug/mL): 1.03
Fold change in viability AVG ([3]; 50 ug/mL): 0.24
Fold change in viability AVG ([3]; 100 ug/mL): 0.19
viability at 72 h, 1 ug/mL [4]: 93%
viability at 72 h, 10 ug/mL [4]: 97%
viability at 72 h, 50 ug/mL [4]: 13%
viability at 72 h, 100 ug/mL [4]: 6%
A549 AVG ([5]; A549, sample at 1 ug/mL): 1.11
A549 AVG ([5]; A549, sample at 10 ug/mL): 1.12
A549 AVG ([5]; A549, sample at 50 ug/mL): 0.66
A549 AVG ([5]; A549, sample at 100 ug/mL): 0.13
Fold change in viability AVG ([5]; 1 ug/mL): 1.11
Fold change in viability AVG ([5]; 10 ug/mL): 1.12
Fold change in viability AVG ([5]; 50 ug/mL): 0.66
Fold change in viability AVG ([5]; 100 ug/mL): 0.13
viability at 1 µg/mL ([5]; Homo sapiens, A549, read-out: Average cell viability, A549, 1 ug/mL): 95%
viability at 10 µg/mL ([5]; Homo sapiens, A549, read-out: Average cell viability, A549, 10 ug/mL): 96%
viability at 50 µg/mL [5, 13]: 56%
viability at 100 µg/mL [5, 14]: 11%
viability at 1 µg/mL ([6]; Homo sapiens, SK-OV-3, read-out: Average cell viability, SKOV, 1 ug/mL): 85%
viability at 10 µg/mL ([6]; Homo sapiens, SK-OV-3, read-out: Average cell viability, SKOV, 10 ug/mL): 88%
viability at 50 µg/mL [6, 15]: 67%
viability at 100 µg/mL [6, 16]: 26%
Fold change in viability AVG ([6]; 1 ug/mL): 0.91
Fold change in viability AVG ([6]; 10 ug/mL): 0.95
Fold change in viability AVG ([6]; 50 ug/mL): 0.73
Fold change in viability AVG ([6]; 100 ug/mL): 0.28
viability at 1 µg/mL ([7]; Homo sapiens, PC-3, read-out: Average cell viability, PC3, 1 ug/mL): 91%
viability at 10 µg/mL ([7]; Homo sapiens, PC-3, read-out: Average cell viability, PC3, 10 ug/mL): 97%
viability at 50 µg/mL [7, 17]: 11%
viability at 100 µg/mL [7, 18]: 6%
PC3 AVG ([7]; PC3, sample at 1 ug/mL): 0.94
PC3 AVG ([7]; PC3, sample at 10 ug/mL): 1.00
PC3 AVG ([7]; PC3, sample at 50 ug/mL): 0.12
PC3 AVG ([7]; PC3, sample at 100 ug/mL): 0.06
Fold change in viability AVG ([7]; 1 ug/mL): 0.94
Fold change in viability AVG ([7]; 10 ug/mL): 1.00
Fold change in viability AVG ([7]; 50 ug/mL): 0.12
Fold change in viability AVG ([7]; 100 ug/mL): 0.06
viability at 1 µg/mL ([8]; Homo sapiens, U373 MG, read-out: Average cell viability, U373, 1 ug/mL): 87%
viability at 10 µg/mL ([8]; Homo sapiens, U373 MG, read-out: Average cell viability, U373, 10 ug/mL): 89%
viability at 50 µg/mL [8, 19]: 7%
viability at 100 µg/mL [8, 20]: 5%
U373 AVG ([8]; U373, sample at 1 ug/mL): 0.89
U373 AVG ([8]; U373, sample at 10 ug/mL): 0.90
U373 AVG ([8]; U373, sample at 50 ug/mL): 0.07
U373 AVG ([8]; U373, sample at 100 ug/mL): 0.05
Fold change in viability AVG ([8]; 1 ug/mL): 0.89
Fold change in viability AVG ([8]; 10 ug/mL): 0.90
Fold change in viability AVG ([8]; 50 ug/mL): 0.07
Fold change in viability AVG ([8]; 100 ug/mL): 0.05
MDA-MB AVG ([9]; sample at 1 ug/mL): 1.09
MDA-MB AVG ([9]; sample at 10 ug/mL): 1.04
MDA-MB AVG ([9]; sample at 50 ug/mL): 0.19
MDA-MB AVG ([9]; sample at 100 ug/mL): 0.16
Fold change in viability AVG ([9]; 1 ug/mL): 1.09
Fold change in viability AVG ([9]; 10 ug/mL): 1.04
Fold change in viability AVG ([9]; 50 ug/mL): 0.19
Fold change in viability AVG ([9]; 100 ug/mL): 0.16

CCCCCCCCCCCCCCCC(=O)OCC(O)CO (stereo not shown) [77-38-41-1 B, MAG (C16:0)]
viability at 50 µg/mL [1]: 64%
viability at 100 µg/mL [1]: 28%
viability at 72 h, 50 ug/mL ([10]; 50 ug/mL): 78%
viability at 72 h, 100 ug/mL [10]: 72%
Fold change in viability AVG ([2]; 50 ug/mL): 0.85
Fold change in viability AVG ([2]; 100 ug/mL): 0.79
viability at 50 µg/mL [3, 11]: 96%
viability at 100 µg/mL [3, 12]: 105%
Fold change in viability AVG ([3]; 50 ug/mL): 1.10
In vitro activity against cancer cell lines, THP-1 AVG ([3]; 50 ug/mL): 1.10
Fold change in viability AVG ([3]; 100 ug/mL): 1.19
In vitro activity against cancer cell lines, THP-1 AVG ([3]; 100 ug/mL): 1.19
Fold change in viability AVG ([5]; 50 ug/mL): 0.81
In vitro activity against cancer cell lines, A549 AVG ([5]; 50 ug/mL): 0.81
Fold change in viability AVG ([5]; 100 ug/mL): 0.30
In vitro activity against cancer cell lines, A549 AVG ([5]; 100 ug/mL): 0.30
viability at 50 µg/mL [5, 13]: 69%
viability at 100 µg/mL [5, 14]: 26%
viability at 50 µg/mL [6, 15]: 52%
viability at 100 µg/mL [6, 16]: 22%
Fold change in viability AVG ([6]; 50 ug/mL): 0.56
In vitro activity against cancer cell lines, SKOV AVG ([6]; 50 ug/mL): 0.56
Fold change in viability AVG ([6]; 100 ug/mL): 0.24
In vitro activity against cancer cell lines, SKOV AVG ([6]; 100 ug/mL): 0.24
viability at 50 µg/mL [7, 17]: 52%
viability at 100 µg/mL [7, 18]: 15%
Fold change in viability AVG ([7]; 50 ug/mL): 0.54
In vitro activity against cancer cell lines, PC3 AVG ([7]; 50 ug/mL): 0.54
Fold change in viability AVG ([7]; 100 ug/mL): 0.16
In vitro activity against cancer cell lines, PC3 AVG ([7]; 100 ug/mL): 0.16
viability at 50 µg/mL [8, 19]: 13%
viability at 100 µg/mL [8, 20]: 7%
Fold change in viability AVG ([8]; 50 ug/mL): 0.13
In vitro activity against cancer cell lines, U373 AVG ([8]; 50 ug/mL): 0.13
Fold change in viability AVG ([8]; 100 ug/mL): 0.07
In vitro activity against cancer cell lines, U373 AVG ([8]; 100 ug/mL): 0.07
Fold change in viability AVG ([9]; 50 ug/mL): 0.70
In vitro activity against cancer cell lines, MDA-MB AVG ([9]; 50 ug/mL): 0.70
Fold change in viability AVG ([9]; 100 ug/mL): 0.30
In vitro activity against cancer cell lines, MDA-MB AVG ([9]; 100 ug/mL): 0.30

CCCCCC(O)/C=C/C=C/CCCCCCCC(=O)O (stereo not shown) [77-31-34-6 A, 13-hydroxyoctadeca-9E,11E-dienoic acid]
viability at 100 µg/mL [1]: 12%
viability at 72 h, 100 ug/mL [10]: 13%
Fold change in viability AVG ([2]; 1.00 ug/mL (so in the source)): 0.14
viability at 100 µg/mL [3, 12]: 6%
Fold change in viability AVG ([3]; 1.00 ug/mL (so in the source)): 0.07
In vitro activity against cancer cell lines, THP-1 AVG ([3]; 100 ug/mL): 0.07
Fold change in viability AVG ([5]; 1.00 ug/mL (so in the source)): 0.08
In vitro activity against cancer cell lines, A549 AVG ([5]; 100 ug/mL): 0.08
viability at 100 µg/mL [5, 14]: 7%
viability at 100 µg/mL [6, 16]: 53%
Fold change in viability AVG ([6]; 1.00 ug/mL (so in the source)): 0.57
In vitro activity against cancer cell lines, SKOV AVG ([6]; 100 ug/mL): 0.57
viability at 100 µg/mL [7, 18]: 5%
Fold change in viability AVG ([7]; 1.00 ug/mL (so in the source)): 0.05
In vitro activity against cancer cell lines, PC3 AVG ([7]; 100 ug/mL): 0.05
viability at 100 µg/mL [8, 20]: 4%
Fold change in viability AVG ([8]; 1.00 ug/mL (so in the source)): 0.04
In vitro activity against cancer cell lines, U373 AVG ([8]; 100 ug/mL): 0.04
Fold change in viability AVG ([9]; 1.00 ug/mL (so in the source)): 0.13
In vitro activity against cancer cell lines, MDA-MB AVG ([9]; 100 ug/mL): 0.13
